Measured values: patent publication US20070167411A1, “Compositions for treating angina” (Medicure International Inc., priority 2003, published 2007)

How the values were obtained:
[1] = tested on: isolated non-ischemic working rat heart; assay: Glucose oxidation rates in isolated working rat heart perfusion ([14C] glucose, 14CO2 production); settings: 60 minutes aerobic perfusion, compound added about 5 minutes into aerobic period, saline control 1580±183
Method: The goal was to determine if […] altered glucose oxidation rates or cardiac function in the isolated non-ischemic working rat heart model. This was achieved by subjecting rat hearts to 60 minutes of aerobic perfusion. […] was added about 5 minutes into the aerobic period and the effects of […] on glucose metabolism was determined during the aerobic period. […] Rat hearts were cannulated for isolated working heart perfusions as described previously (Lopaschuk et al., J Pharmacol Exp Ther. 1993 Jan; 264(1):135-44). In brief, male Sprague-Dawley rats (0.3-0.35 kg) were anesthetized with pentobarbital sodium (60 mg/kg i.p.). The hearts were quickly excised, the aorta was cannulated, and a retrograde perfusion at 37° C. was initiated at a hydrostatic pressure of 60 mm Hg. Hearts were trimmed of excess tissue, and the pulmonary artery and the opening to the left atrium were then cannulated. […] Spontaneously beating hearts were used in all perfusions, heart rate and aortic pressure were measured with a Biopac Systems Inc. blood pressure transducer connected to the aortic outflow line. Cardiac output and aortic flow were measured with Transonic […] ultrasonic flow probes in the preload and afterload lines, respectively. Coronary flow was calculated as the difference between cardiac output and aortic flow. […]

[2] = water, alcohol, and ether; cited from earlier work

Structure (SMILES) | glucose oxidation rates [1] | solubility [2]
O=C(O)C(Cl)Cl [DCA, dichloroacetic acid, reference compound] | 2422±140 | 
Cc1ncc(COP(=O)(O)O)c(C=O)c1O [Example P5P, 3-hydroxy-2-methyl-5-[(phosphonooxy)methyl]-4-pyridine-carboxaldehyde] | 2253±230 | essentially insoluble in water, alcohol, and ether
